The target of one data set is T1, squalene synthase (Homo sapiens, UniProt P37268).
T1 construct: endogenous in cells; host or cells: HepG2 (human hepatic cancer cells); sediment of the 105000 x g centrifugation (microsomal fraction)
T1 sequence (P37268 1-417): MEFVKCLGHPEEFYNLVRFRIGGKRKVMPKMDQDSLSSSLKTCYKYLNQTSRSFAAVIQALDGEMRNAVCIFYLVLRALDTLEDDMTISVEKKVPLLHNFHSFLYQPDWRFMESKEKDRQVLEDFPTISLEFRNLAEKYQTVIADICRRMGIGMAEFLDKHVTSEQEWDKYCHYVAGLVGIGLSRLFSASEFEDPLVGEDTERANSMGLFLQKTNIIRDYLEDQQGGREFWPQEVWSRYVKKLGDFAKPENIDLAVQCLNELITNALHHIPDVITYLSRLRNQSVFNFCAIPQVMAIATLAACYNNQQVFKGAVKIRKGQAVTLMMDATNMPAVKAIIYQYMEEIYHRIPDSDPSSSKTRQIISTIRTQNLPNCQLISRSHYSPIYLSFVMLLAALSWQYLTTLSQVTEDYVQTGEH
Put plainly: Squalene synthase inhibiting activity (Test Example 1). It is filed as biochemical. As to conditions: enzyme solution from human hepatic cancer cell HepG2; 5 μM [1-3H] farnesyl pyrophosphate, 37° C., 45 minutes; read-out: Inhibiting activity (IC50, 10^−9M). The protocol: Squalene Synthase Inhibiting Activity
The squalene synthase inhibiting activity was measured using an enzyme solution obtained according to a preparing method described below as follows:
That is, an enzyme solution (protein 0.8 μg) prepared according to the following preparing method was added to a solution containing 5 μM [1-^3H] farnesyl pyrophosphate (specific activity […]), 1 mM NADPH (reduced type nicotinamide adenine dinucleotide phosphate), 5 mM MgCl2, 6 mM glutathione, 100 mM potassium phosphate buffer (pH 7.4) and a test drug (added as an aqueous solution or DMSO solution)(total amount 50 μl), which was reacted at 37° C. for 45 minutes. 150 μl of a mixed solution of chloroform and methanol (1:2) was added to stop the reaction, and 50 μl of chloroform and 50 μl of a 3N sodium hydroxide solution were added. 50 μl of the chloroform layer (lower layer) containing the reaction product, a main component of which is squalene, and 3 ml of toluene series liquid scintillator were mixed, and the radioactivity thereof was measured by a liquid scintillation counter.
The squalene synthase inhibiting activity was shown by the concentration at which 50% of the radioactivity […] into the chloroform layer (IC50, molar concentration (M)).
Preparation of Human Enzyme Solution
Human hepatic cancer cell HepG2 (about 1×10^9 cells) was grown in Dulbecco's modified Eagle medium (37° C., in the presence of 5%CO2) containing 10% bovine fetal serum, the resulting cells were suspended in 10 ml of ice-cooled buffer [100 mM potassium phosphate buffer (pH 7.4), 30 mM nicotinamide, 2.5 mM MgCl2], and ruptured by the ultrasonication (30 seconds, 2 times). The resulting sonicate was centrifuged at 10000× g for 20 minutes (4° C.). The resulting supernatant was centrifuged at 105000× g for 90 minutes (4° C.), then the sediment was suspended in an ice-cooled 100 mM potassium phosphate buffer (pH 7.4), and centrifuged again at 105000× g for 90 minutes (4° C.). This was suspended in an ice-cooled 100 mM potassium phosphate buffer (pH 7.4) (protein concentration about 4 mg/ml), which was used as an enzyme solution.

As a reminder, the IC50 is the concentration that inhibits the measured activity by half. Usually melting point stands for the temperature of the solid-liquid transition.

As for `COc1cccc([C@H]2O[C@H](CC(=O)Nc3cc(CCC(=O)O)ccc3F)C(=O)N(CC(C)(C)CO)c3ccc(Cl)cc32)c1OC` [Example 53, 3-[3-[[[(3R,5S)-7-chloro-5-(2,3-dimethoxyphenyl)-1-(3-hydroxy-2,2-dimethylpropyl)-2-oxo-1,2,3,5-tetrahydro-4,1-benzoxazepin-3-yl]acetyl]amino]-4-fluorophenyl]propionic Acid], the melting point was in the range of 151 to 152 °C. The IC50 on squalene synthase was determined as 40 nM.
Regarding `COc1cccc([C@H]2O[C@H](CC(=O)Nc3cc(CCC(=O)O)ccc3C)C(=O)N(CC(C)(C)CO)c3ccc(Cl)cc32)c1OC` [Example 55, 3-[3-[[(3R,5S)-7-chloro-5-(2,3-dimethoxyphenyl)-1-(3-hydroxy-2,2-dimethylpropyl)-2-oxo-1,2,3,5-tetrahydro-4,1-benzoxazepin-3-yl]acetyl]amino-4-methylphenyl]propionic Acid], the melting point fell in the range of 154 to 155 °C. The IC50 on squalene synthase is 16 nM.
For `COc1cccc([C@H]2O[C@H](CC(=O)Nc3cccc(CCC(=O)O)c3)C(=O)N(CC(C)(C)C)c3ccc(Cl)cc32)c1OC` [Example 60, 3-[3-[[(3R,5S)-7-chloro-5-(2,3-dimethoxyphenyl)-1-neopentyl-2-oxo-1,2,3,5-tetrahydro-4,1-benzoxazepin-3-yl]acetyl]aminophenyl]propionic Acid] the same measures were 172 to 173 °C and 50 nM.
`COc1cccc([C@H]2O[C@H](CC(=O)NCc3ccc(CC(=O)O)cc3)C(=O)N(CC(C)(C)CO)c3ccc(Cl)cc32)c1OC` [Example 61, 4-[[[(3R,5S)-7-chloro-5-(2,3-dimethoxyphenyl)-1-(3-hydroxy-2,2-dimethylpropyl)-2-oxo-1,2,3,5-tetrahydro-4,1-benzoxazepin-3-yl]acetyl]aminomethyl]phenylacetic acid] showed a melting point of 129 to 132 °C. The IC50 at squalene synthase is 21 nM.

(Values after patent US20030078251A1, “Benzoxazepinones and their use as squalene synthase inhibitors” (priority 2000, published 2003).)
